Assay results taken from patent US20230048170A1, “COMPOSITION INCLUDING CATIONIC POLYSACCHARIDE AND ANIONIC ANTIOXIDANT” (priority 2019, published 2023).

Test: Solubilisation of baicalin in alkaline water with or without polyquaternium-67
Format: physicochemical
Conditions: pH 10
Procedure: In Examples 1-3, a polyquaternium-67 (PQ-67) was dissolved in water to prepare a PQ-67 aqueous solution. Then, the pH of the solution was adjusted to 10 by adding 1M NaOH aqueous solution. Next, baicalin was added to the alkaline solution as much as possible. In the compositions according to Examples 1-3, […] was able to be solubilized up to an amount of 0.1% by weight, 0.2% by weight and 0.25% by weight, respectively, relative to the total weight of the composition.
On the other hand, in the composition according to Comparative Example 1 including no PQ-67, the solubilized amount of […] was limited only to 0.025% by weight relative to the total weight of the composition.
Thus, by forming a complex by the electrostatic interaction, the solubility of baicalin increased up to 10 folds.

## O=C(O)[C@H]1O[C@@H](Oc2cc3oc(-c4ccccc4)cc(=O)c3c(O)c2O)[C@H](O)[C@@H](O)[C@@H]1O [baicalin]
  increase of solubility of baicalin by complex formation with PQ-67: up to 10 folds
